We go through 30 compounds from US10357481B2 (MERCK SHARP & DOHME CORP., priority 2015, dated 2019).

The test deals with T1, human PDE2A1 (Homo sapiens, UniProt O00408).
T1 construct: GST; purchased BPS Bioscience (San Diego, Calif.) 60020; host or cells: insect cells
T1 sequence (O00408 1-920 isoform O00408-2): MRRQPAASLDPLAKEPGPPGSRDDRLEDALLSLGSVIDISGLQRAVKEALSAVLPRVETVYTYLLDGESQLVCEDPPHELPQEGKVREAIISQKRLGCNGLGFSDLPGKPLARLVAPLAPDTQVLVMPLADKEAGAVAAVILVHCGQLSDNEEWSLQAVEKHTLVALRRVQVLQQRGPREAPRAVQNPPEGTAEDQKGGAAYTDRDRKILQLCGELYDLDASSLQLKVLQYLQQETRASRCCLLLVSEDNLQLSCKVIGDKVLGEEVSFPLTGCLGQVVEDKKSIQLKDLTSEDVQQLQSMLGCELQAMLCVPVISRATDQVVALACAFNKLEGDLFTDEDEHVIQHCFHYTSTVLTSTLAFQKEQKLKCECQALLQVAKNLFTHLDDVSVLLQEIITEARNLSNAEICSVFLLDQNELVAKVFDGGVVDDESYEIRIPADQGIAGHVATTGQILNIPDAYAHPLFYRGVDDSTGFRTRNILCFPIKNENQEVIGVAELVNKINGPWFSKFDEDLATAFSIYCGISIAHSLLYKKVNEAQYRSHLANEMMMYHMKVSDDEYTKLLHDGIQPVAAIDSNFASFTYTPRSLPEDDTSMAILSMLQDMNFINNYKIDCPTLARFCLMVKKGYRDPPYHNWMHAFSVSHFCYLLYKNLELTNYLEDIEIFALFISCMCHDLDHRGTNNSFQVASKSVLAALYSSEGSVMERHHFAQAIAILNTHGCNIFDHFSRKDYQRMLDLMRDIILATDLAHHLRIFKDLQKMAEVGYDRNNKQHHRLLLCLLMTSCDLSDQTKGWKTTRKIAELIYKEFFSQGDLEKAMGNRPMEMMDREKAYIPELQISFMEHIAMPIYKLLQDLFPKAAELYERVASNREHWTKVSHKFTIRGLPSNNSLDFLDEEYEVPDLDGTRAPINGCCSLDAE
In words: IMAP FP PDE selectivity panel, human PDE2A1. In kind it is biochemical. As to conditions: Lab B; read-out: Human PDE2 Ki (nM) Lab B. The method, boiled down: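 Human PDE2A1 tested alongside PDE1–11 by IMAP fluorescence polarization at room temperature. Substrate was 50 nM FAM-cAMP plus 1000 nM cGMP, buffer pH 7.2 with MgCl2 and DTT, enzyme set for 20% conversion. Ten 3-fold compound dilutions; 60 min reaction, then IMAP binding solution, 1 h, parallel/perpendicular fluorescence read.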
As to `Cc1cc(N[C@@H](c2ccc(C3CC3)c(F)c2)C(C)(C)C)n2ncnc2n1` [Example 31, N-[(1R)-1-(4-Cyclopropyl-3-fluorophenyl)-2,2-dimethylpropyl]-5-methyl[1,2,4]triazolo[1,5-a] pyrimidin-7-amine], the Ki was 4.9 nM. For the compound `CC(C)(O)C(Nc1cc(C(F)(F)F)nc2ncnn12)c1ccc(CC(F)(F)F)cc1` (single isomer, unassigned) [Example 169, (1S or R)-2-Methyl-1-[4-(2,2,2-trifluoroethyl)phenyl]-1-{[5-(trifluoromethyl) [1,2,4]triazolo [1,5-a]pyrimidin-7-yl]amino} propan-2-ol], the Ki stood at 50 nM. For `CC(C)c1cc(NC(c2ccc(C(F)(F)F)cc2)C(C)(C)O)n2ncnc2n1` (stereo in doubt) [Example 156, (1S)-2-Methyl-1-{[5-(1-methylethyl)[1,2,4]triazolo[1,5-a]pyrimidin-7-yl]amino}-1-[4-(trifluoromethyl)phenyl]propan-2-ol], the Ki amounted to 636 nM. For `CC(C)(O)[C@@H](Nc1cc(C(F)F)cc2ncnn12)c1ccc(C(F)(F)F)cc1` [Example 280, (1S)-1-{[7-(Difluoromethyl) [1,2,4]triazolo[1,5-a]pyridin-5-yl]amino}-1-[4-(trifluoromethyl)phenyl]-2-methylpropan-2-ol], the Ki turned out to be 20 nM. For the compound `CCC(O)(CC)C(Nc1cc(C)nc2ncnn12)c1ccc(C(F)(F)F)c(F)c1` (single isomer, unassigned) [Example 215, (R)- or (S)-3-((3-Fluoro-4-(trifluoromethyl)phenyl)(5-methyl-[1,2,4]triazolo [1,5-a]pyrimidin-7-ylamino)methyl) pentan-3-ol], the inhibitory constant (Ki) is above 2960 nM. Turning to `Cc1cc(N[C@@H](c2ccc(C(F)(F)F)cc2)C(C)(C)O)n2ncnc2n1` [Example 94, (1S)-2-Methyl-1-[(5-methyl [1,2,4]triazolo[1,5-a]pyrimidin-7-yl)amino]-1-[4-(trifluoromethyl)phenyl]propan-2-ol], the Ki was found to be 17 nM.

With `Cc1cc(NC(c2ccc(C(F)(F)F)nc2)C(C)(C)O)n2ncnc2n1` (single isomer, unassigned) [Example 225, (R)- or (S)-2-Methyl-1-(5-methyl-[1,2,4]triazolo [1,5-a]pyrimidin-7-ylamino)-1-(6-(trifluoromethyl)pyridin-3-yl) propan-2-ol], the Ki turned out to be 258 nM. The value for `CC(C)(O)C(Nc1cc(C(F)F)nc2ncnn12)c1ccc(OC(F)F)cc1F` (single isomer, unassigned) [Example 182] was above 2960 nM; that for `CCC(O)(CC)C(Nc1cc(C(F)(F)F)nc2ncnn12)c1ccc(C(F)(F)F)c(F)c1` (single isomer, unassigned) [Example 220, (S)- or (R)-3-((3-Fluoro-4-(trifluoromethyl)phenyl)(5-(trifluoromethyl)-[1,2,4]triazolo [1,5-a]pyrimidin-7-ylamino)methyl) pentan-3-ol] was around 2110 nM; that for `Cc1cc(N[C@H](c2ccc(F)c(OC(F)(F)F)c2)C(C)(C)O)n2ncnc2n1` [Example 131, (1R)-1-[4-Fluoro-3-(trifluoro-methoxy)phenyl]-2-methyl-1-[(5-methyl[1,2,4]triazolo[1,5-a]pyrimidin-7-yl)amino]propan-2-ol] was above 2960 nM.

Regarding `C[C@H](Nc1cc(CO)cc2ncnn12)c1ccc(C(F)(F)F)cc1` [Example 268, [5-({(1S)-1-[4-(Trifluoromethyl)phenyl]ethyl}amino)[1,2,4]triazolo[1,5-a]pyridin-7-yl] methanol], the Ki is 2080 nM. As for `OCc1cc(NC2(c3ccc(C(F)(F)F)cc3F)CC2)n2ncnc2c1` [Example 270, [5-({1-[2-Fluoro-4-(trifluoromethyl)phenyl]cyclopropyl}amino)[1,2,4]triazolo[1,5-a]pyridin-7-yl] methanol], the inhibition constant Ki came to 101 nM. On to `Cc1cc(N[C@@](C)(c2ccc(OC(F)(F)F)cc2)C(C)(C)O)n2ncnc2n1` [Example 155, (3S)-2-Methyl-3-[(5-methyl[1,2,4]triazolo[1,5-a]pyrimidin-7-yl)amino]-3-[4-(trifluoromethoxy)phenyl]butan-2-ol], for which the inhibition constant (Ki) was found to be 525 nM. Take `CC(C)(O)C(Nc1cc(C(F)(F)F)nc2ncnn12)c1ccc(OC(F)(F)F)cc1F` (single isomer, unassigned) [Example 172, (1R or S)-1-[2-Fluoro-4-(trifluoromethoxy)phenyl]-2-methyl-1-{[5-(trifluoromethyl) [1,2,4]triazolo [1,5-a]pyrimidin-7-yl]amino} propan-2-ol]: the inhibition constant (Ki) stood at 25 nM. In the case of `CC(C)(O)C(Nc1cc(C(F)(F)F)nc2ncnn12)c1ccc(SC(F)(F)F)cc1` (single isomer, unassigned) [Example 221, (R)- or (S)-2-Methyl-1-(5-(trifluoromethyl)-[1,2,4]triazolo [1,5-a]pyrimidin-7-ylamino)-1-(4-(trifluoromethylthio)phenyl)propan-2-ol], the inhibition constant (Ki) is above 2960 nM.

For the compound `Cc1cc(N[C@H](C)c2ccc(SC(F)(F)F)c(F)c2)n2ncnc2n1` [Example 11, N-[(1R)-1-{3-Fluoro-4-[(trifluoromethyl)sulfanyl]phenyl}ethyl]-5-methyl[1,2,4]triazolo [1,5-a]pyrimidin-7-amine], the Ki was found to be 18 nM.

With `Cc1cc(NC(c2ccc(OC(F)(F)F)c(F)c2)C(C)(C)CO)n2ncnc2n1` (single isomer, unassigned) [Example 232, (S or S)-3-(3-fluoro-4-(trifluoromethoxy)phenyl)-2,2-dimethyl-3-(5-methyl-[1,2,4]triazolo[1,5-a]pyrimidin-7-ylamino)propan-1-ol], the Ki is above 2960 nM.

With `Cc1cc(NC(c2cc3ccccc3n2C)C(C)(C)O)n2ncnc2n1` (single isomer, unassigned) [Example 124, (1S or R)-2-Methyl-1-(1-methyl-1H-indol-2-yl)-1-[(5-methyl [1,2,4]triazolo [1,5-a]pyrimidin-7-yl)amino] propan-2-ol], the Ki was determined as 79 nM.

Consider `Cc1cc(NC(c2ccc(C(F)(F)F)cc2Cl)C(C)(C)O)n2ncnc2n1` (single isomer, unassigned) [Example 104, (1S or R)-1-[2-Chloro-4-(trifluoromethyl)phenyl]-2-methyl-1-[(5-methyl[1,2,4]triazolo[1,5-a]pyrimidin-7-yl)amino]propan-2-ol], for which the Ki is around 2780 nM. Take `Cc1cc(NC(c2ccc(-c3ccccc3)cc2)C(C)(C)O)n2ncnc2n1` (single isomer, unassigned) [Example 126, (1S or R)-1-Biphenyl-4-yl-2-methyl-1-[(5-methyl[1,2,4]triazolo[1,5-a]pyrimidin-7-yl)amino]propan-2-ol]: the inhibitory constant (Ki) is above 2960 nM.

As to `C[C@@H](Nc1cncc2ncnn12)c1ccc(C(F)(F)F)cc1` [Example 288], the Ki was 221 nM. For `CCc1nc2nc(C)cc(N[C@@H](c3ccc(C(F)(F)F)c(F)c3)C(C)(C)C)n2n1` [Example 203, (R)-2-Ethyl-N-(1-(3-fluoro-4-(trifluoromethyl)phenyl)-2,2-dimethylpropyl)-5-methyl-[1,2,4]triazolo [1,5-a]pyrimidin-7-amine], the inhibitory constant (Ki) is 33 nM. Consider `Cc1cc(NC(C)(C)c2ccc(C(F)(F)F)cc2F)n2ncnc2n1` [Example 52, N-{1-[2-Fluoro-4-(trifluoromethyl)phenyl]-1-methylethyl}-5-methyl [1,2,4]triazolo[1,5-a]pyrimidin-7-amine], for which the Ki was determined as 78 nM. As for `Cc1cc(N[C@@H](CC(C)(C)O)c2ccc(C(F)(F)F)c(F)c2)n2ncnc2n1` [Example 153, (4S)-4-[3-Fluoro-4-(trifluoromethyl)phenyl]-2-methyl-4-[(5-methyl[1,2,4]triazolo[1,5-a]pyrimidin-7-yl)amino]butan-2-ol], the Ki was above 2960 nM. Turning to `CC(C)(O)C(Nc1cc(C(F)F)nc2ncnn12)c1ccc(OC(F)(F)F)cc1F` (single isomer, unassigned) [Example 186, (1R or S)-{[5-(Difluoromethyl) [1,2,4]triazolo [1,5-a]pyrimidin-7-yl]amino}-1-[2-fluoro-4-(trifluoromethoxy)phenyl]-2-methylpropan-2-ol], the inhibition constant (Ki) turned out to be 1900 nM. Next, `CC(C)(O)C(Nc1cc(C2CC2)nc2ncnn12)c1ccc(S(F)(F)(F)(F)F)cc1` (single isomer, unassigned) [Example 145, (1R or S)-1-[(5- Cyclopropyl [1,2,4]triazolo [1,5-a]pyrimidin-7-yl)amino]-2-methyl-1-[4-(pentafluoro-λ^6-sulfanyl)phenyl]propan-2-ol]: 25 nM. Turning to `Cc1cc(N[C@@H](c2ccc(C(F)(F)F)c(F)c2)C(C)(C)C)n2nc(C)nc2n1` [Example 202, (R)-N-(1-(3-Fluoro-4-(trifluoromethyl)phenyl)-2,2-dimethylpropyl)-2,5-dimethyl-[1,2,4]triazolo [1,5-a]pyrimidin-7-amine], the Ki stood at 56 nM.

Take `Cc1cc(N[C@H](c2ccc(C(F)(F)F)cc2)C(C)(C)O)n2ncnc2n1` [Example 95, (1R)-2-Methyl-1-[(5-methyl [1,2,4]triazolo[1,5-a]pyrimidin-7-yl)amino]-1-[4-(trifluoromethyl)phenyl]propan-2-ol]: the Ki was above 2960 nM. Regarding `Cc1cc(N[C@@H](c2ccc(OC(F)(F)F)c(F)c2)C(C)(C)C)n2ncnc2n1` [Example 28, N-{(1R)-1-[3-Fluoro-4-(trifluoromethoxy)phenyl]-2,2-dimethylpropyl}-5-methyl[1,2,4]triazolo[1,5-a] pyrimidin-7-amine], the Ki amounted to 7.1 nM. As to `Cc1cc(N[C@H](C)c2ccc(OC(F)(F)F)c(F)c2)n2ncnc2n1` [Example 8, N-{(1R)-1-[3-Fluoro-4-(trifluoromethoxy)phenyl]ethyl}-5-methyl[1,2,4]triazolo[1,5-a] pyrimidin-7-amine], the Ki turned out to be 57 nM.

What is called Ki is a measure of affinity in units of concentration, obtained from inhibition or displacement.
